Assay results published in patent US20140243239A1, “MULTIPLEXED KINASE INHIBITOR BEADS AND USES THEREOF” (University of North Carolina at Chapel Hill, priority 2011, published 2014).

Experiments:
SUM159 cells = test: SUM159 cell growth (Cell-Titer Glo, cell counts); format: cell-based, human; details: for SUM159 cell growth inhibition in combination with AZD6244 / SUM159 cell growth inhibition, RTK inhibitor as single agent: Cell-Titer Glo (FIG. 5C, 5D)
Experimental: (§1) Cell Culture: MDA-MB-231 cells were grown in DMEM/F12 supplemented with 10% FBS. SUM-159 cells were grown in DMEM/F12 supplemented with 10% FBS 1 μg/mL hydrocortisone, and 5 μg/mL insulin. SUM159-R cells were continually grown in the presence of 5 μM AZD6244. For SILAC labeling, cells were grown for five doublings in arginine- and lysine-depleted media (as above) supplemented with either unlabeled L-arginine (42 mg/L) and L-lysine (71 mg/L) or equimolar amounts of heavy isotope labeled [13C6,15N4]arginine (Arg10) and [13C6]lysine (Lys6) (Cambridge Isotope Laboratories). Proliferation was quantified using Cell-Titer Glo Luminescent Cell Viability Assay (Promega). Fresh media containing DMSO or kinase inhibitors was added daily and experiments were performed in triplicate.

ERK1/2 [1] = test: Western blot of MEK/ERK signaling in SUM159 cells; format: cell-based, human; details: BEZ235 (FIG. 10F)
Description: (§2) Detailed methods and antibodies are provided in Supplemental Experimental Procedures.
(§3) Western blotting: Proteins from cell lysates were separated by SDS-PAGE chromatography, transferred to nitrocellulose membranes, and probed with the indicated primary antibodies. Antibodies recognizing pAKT (S473), pAKT (T308), AURA, pAXL (Y702), AXL, c-Myc, DDR1, EGFR, pERK1/2 (T202/Y204), pHER3 (Y1197), MAX, pMEK1/2 (S217/S221), MEK1/2, MKP3, pP70S6K (T389), pPDGFRβ (Y751), pPDGFRβ (Y1009), pPDGFR (Y857), PDGFRβ, pRAF (S338), pRSK1 (T359/S363), pVEGFR2 (Y1175), VEGFR2 were obtained from Cell Signaling Technology. Antibodies for Cyclin A2, Cyclin B1, Cyclin D1, ERK2, RAF, and pRAF (S259) were obtained from Santa Cruz Biotechnology. The antibody recognizing Bim was obtained from Chemicon. The antibody recognizing p-c-Myc (S62) was obtained from Abeam. Secondary HRP-anti-rabbit and HRP-anti-goat secondary antibodies were from Jackson Immunoresearch Laboratories and Santa Cruz Biotechnology, respectively. Western blots were visualized by incubation with SuperSignal West Pico Chemiluminescent Substrate (Thermo Scientific).

RTKs [2] = test: RTK tyrosine phosphorylation/expression in SUM159 cells (RTK arrays, western blot); format: cell-based, human
Experimental: (§4) Western blotting and RTK arrays: Western blotting and RTK array analysis were performed as previously described (Amin et al., 2010). Amin et al. 2010 Sci Transl Med 2, 16ra17. Detailed methods and antibodies are provided in Supplemental Experimental Procedures.
as §3
RTK arrays: Cells were harvested in RTK array lysis buffer containing 20 mM Tris-HCl (pH 8.0), 1% NP-40, 10% glycerol, 137 mM NaCl, 2 mM EDTA, 1×EDTA-free protease inhibitor cocktail (Roche), and 1% each of phosphatase inhibitor cocktails 1 and 2 (Sigma). After incubating on ice for 20 minutes, cell debris was pelleted at 4° C. Lysates (500 μg protein) were applied to R&D Systems Proteome Profiler™ Human Phospho-RTK antibody arrays. Washing and secondary antibody steps were performed according to the manufacturer“s instructions. RTK arrays were visualized by SuperSignal West Pico Chemiluminescent Substrate (Thermo Scientific).

c-Myc = c-Myc protein and RNA levels in SUM159 cells (western blot, qRT-PCR); format: cell-based, human
Experimental: as §4
qRT-PCR: Total RNA was isolated from human breast cancer cell lines or murine tumors using the RNeasy® Plus Mini Kit (Qiagen). Real-time RT-PCR was performed on diluted cDNA using the Applied Biosystems 7500 Fast Real-Time PCR System (standard program) and inventoried TaqMan® Gene Expression Assays. Each cDNA sample was assayed in triplicate. Fold change with respect to the calibrator represents the average of the triplicate values, with error bars representing the range of the mean (95% confidence).
as §3

p70 S6 kinase [3] = test: p70 S6 kinase activity in SUM159 cells; format: cell-based, human; details: BEZ235 (FIG. 10F)
Description: as §2, §3

p70 S6 kinase [4] = test: p70 S6 kinase activity in HPAC pancreatic cancer cells; format: cell-based
Experimental: (§5) Kinome reprogramming in pancreatic cancer—cell type and inhibitor specific. The kinome response to drug in 3 pancreatic cancer cell lines (HPAC, AsPC-1, HPAF-II) was also evaluated using 3 kinase inhibitors that are currently in Phase I/II clinical trials: BKM120 (Novartis), an oral pan-class 1 PI3K inhibitor, […] (Glaxo Smith-Kline), an ATP competitive PI3K/mTOR inhibitor, and GSK1120212, a reversible allosteric inhibitor of MEK1/2 (Glaxo Smith-Kline). The kinome response for GSK2126458 and GSK1120212 was compared using MIB/MS and RTK arrays to determine if kinome reprogramming was inhibitor-specific. […] Thus, kinome reprogramming is target-specific.

[5] = test system: ALK, RET, INSR and IGF-1R; test: RTK phosphorylation in pancreatic cancer cells (RTK arrays); format: cell-based
Experimental: as §5
Kinome reprogramming in pancreatic cancer cell lines: HPAC, AsPC-1, HPAF-II cell lines were treated with either GSK1120212, GSK2126458, BKM120 or vehicle control and harvested at […]. Normalized spot intensity of RTK arrays were measured and activated and repressed RTK were determined in response to either GSK1120212 or GSK2126458 4 h and 72 h after treatment.

MDA-MB-231 cells = test: MDA-MB-231 cell growth (Cell-Titer Glo); format: cell-based, human; details: for MDA-MB-231 cell growth in combination with AZD6244: combination with AZD6244 (FIG. 12C, 12D, 12G)
Experimental: as §1

RTKs [6] = test: RTK expression in SUM159-R cells (western blot, qRT-PCR); format: cell-based, human; details: 10 nM bortezomib, 24 h
Experimental: as §2
(§6) Generation of AZD6244 resistant SUM159 cells: SUM159 cells were cultured in DMEM/F12 supplemented with 10% FBS media containing 5 μM AZD6244. Media was changed every 2 days, maintaining inhibitor concentrations of 5 μM AZD6244.

SUM159-R cells = test: Growth of AZD6244-resistant SUM159-R cells; format: cell-based, human; details: 250 nM sorafenib, 72 h, cells grown in 5 μM AZD6244
Experimental: as §1, §6

ERK1/2 [7] = test: ERK activity in SUM159-R cells (western blot); format: cell-based, human; details: sorafenib (250 nM) added to 5 μM AZD6244
Experimental: as §2, §6, §3

C3Tag tumors = test: In vivo tumorigenesis experiment, C3Tag TNBC GEMM (tumor volume); design: species or system mouse; details: C3Tag mice, 21 days, sorafenib 30 mg/kg in diet
Experimental: In vivo tumorigenesis experiments: Animal handling and procedures were approved by the University of North Carolina at Chapel Hill Institutional Animal Care and Use Committee and followed the NIH guidelines. Male C3Tag mice were bred with wild type females to produce experimental offspring. Mice were examined for tumors weekly until a palpable mass was found. Treatment began the same day. Tumor size was assessed twice weekly by caliper measurements of tumor areas ((width)2×length))/2 for 21 days. Percent change of tumor volume was calculated using (Final volume−Initial Volume)/Initial Volume and graphed using R (http://www.r-project.org/). Drugs were incorporated into the diet of mice to achieve a daily dose of AZD6244 20 mg/kg and sorafenib 30 mg/kg. Food was provided ab libitum and the amount of daily food intake was pre-determined using Jackson Labs Phenome Database. Tumors at harvest were cut in half and either snap-frozen in liquid nitrogen and stored at −80° C. or placed in neutral buffered 10% formalin solution.

ERK = test: MEK/ERK activation in C3Tag tumors (western blot); format: in vivo, mouse; details: AZD6244 20 mg/kg 28 days; sorafenib 30 mg/kg 26 days
Experimental: (§7) Treatment began the same day. Tumor size was assessed twice weekly by caliper measurements of tumor areas ((width)2×length))/2 for 21 days. […] Drugs were incorporated into the diet of mice to achieve a daily dose of AZD6244 20 mg/kg and sorafenib 30 mg/kg. […] Tumors at harvest were cut in half and either snap-frozen in liquid nitrogen and stored at −80° C. or placed in neutral buffered 10% formalin solution.
as §3, with “Western blots were visualized by incubation with SuperSignal West Pico Chemiluminescent Substrate (Thermo Scientific).” left out

RTKs [8] = test: RTK expression in C3Tag tumors (western blot); format: in vivo, mouse; details: AZD6244 20 mg/kg 28 days; sorafenib 30 mg/kg 26 days
Experimental: as §7, §3

[9] = test system: kinome (kinase binding to MIBs) of C3Tag tumors; test: MIB/MS kinome profile of C3Tag tumors; format: in vivo, mouse; details: sorafenib 30 mg/kg, 26 days
Description: Multiplexed inhibitor bead affinity chromatography: Cells and tumors were lysed and harvested as previously described (Oppermann et al., 2009). Oppermann et al., 2009 Mol Cell Proteo 8 1751-1764. Briefly, lysates were brought to 1 M NaCl and passed through columns of washed inhibitor-conjugated beads (bisindoylmaleimide-X, SB203580, lapatinib, dasatinib, purvalanol B, VI16832, PP58) to isolate protein kinases from the lysates (see Supplemental Experimental Procedures for MIBs preparation). Kinase-bound inhibitor beads were washed with high-salt buffer and 0.1% SDS before elution in 0.5% SDS solution in high heat. Proteins were purified using chloroform/methanol extraction, resuspended in 50 mM ammonium bicarbonate (pH 8.0) or 50 mM HEPES (pH 8.0) for SILAC or iTRAQ respectfully. […]
LC-MS/MS analysis: MS and MS/MS data were acquired using a MALDI TOF/TOF 5800 (AB SCIEX). Peptides were analyzed using ProteinPilot Software Version 3.0 (AB SCIEX) and identification using UniProtKB/Swiss-Prot database (release Oct. 15, 2009). […] ProteinPilot software 3.0 identified and quantified changes in kinase binding to MIBs utilizing the Pro Group Algorithm. […]
Treatment began the same day. Tumor size was assessed twice weekly by caliper measurements of tumor areas ((width)2×length))/2 for 21 days. […]

For `Cn1c(=O)n(-c2ccc(C(C)(C)C#N)cc2)c2c3cc(-c4cnc5ccccc5c4)ccc3ncc21` [BEZ235], the “growth of SUM159 cells” value (SUM159 cells; BEZ235 50 nM) was “strongly growth arrests”, the “effect on the ERK pathway” value (ERK1/2 [1]) was “little effect” and the RTK phosphorylation profile (RTKs [2]; 5 μM AZD6244, 50 nM BEZ235 (FIG. 3H)) was “did not change the RTK phosphorylation profile except for an increase in phospho-AXL”. The c-Myc expression (c-Myc; BEZ235 100 nM (FIG. 11C)) was “does not change” and the “p70 S6 kinase activity” value (p70 S6 kinase [3]) was “inhibits p70 S6 kinase activity”.
`COc1ncc(-c2ccc3nccc(-c4ccnnc4)c3c2)cc1NS(=O)(=O)c1ccc(F)cc1F` [GSK2126458] was tested, and the “p70 S6 kinase activity” value (p70 S6 kinase [4]) was “inhibited p70 S6 kinase activity” and the “ALK, RET, INSR and IGF-1R phosphorylation” value [5] was “induced ALK, RET, INSR and IGF-1R phosphorylation”.
For `CCCS(=O)(=O)Nc1ccc(F)c(C(=O)c2c[nH]c3ncc(Cl)cc23)c1F` [PLX4720], the “growth of SUM159 cells, RAF inhibitor in combination with AZD6244” value (SUM159 cells; cotreatment 72 h (FIG. 12F)) was “stimulated the growth”.
`N#CC(=C(/N)Sc1ccccc1N)/C(C#N)=C(\N)Sc1ccccc1N` [U0126] was tested, and the “growth of SUM159 cells” value (SUM159 cells; 5 μM MEK inhibitor (FIG. 2A)) was “inhibited growth” and the “growth of MDA-MB-231 cells” value (MDA-MB-231 cells; 5 μM MEK inhibitor (FIG. 9A)) was “inhibited growth”.
For `CC(C)C[C@H](NC(=O)[C@H](Cc1ccccc1)NC(=O)c1cnccn1)B(O)O` [bortezomib], the “AZD6244-dependent upregulation of RTKs” value (RTKs [2]; bortezomib 3, 10 or 20 nM with 5 μM AZD6244, 24 h) was “inhibited upregulation of RTKs”, the “AZD6244-induced c-Myc degradation” value (c-Myc; bortezomib with 5 μM AZD6244, 24 h) was “prevented AZD6244-induced c-Myc degradation” and the “RTK expression in SUM159-R cells” value (RTKs [6]) was “readily reversed RTK expression”.
`COc1cc2c(Oc3ccc(NC(=O)C4(C(=O)Nc5ccc(F)cc5)CC4)cc3F)ccnc2cc1OCCCN1CCOCC1` [foretinib] was tested, and the “SUM159 cell growth inhibition in combination with AZD6244” value (SUM159 cells) was “synergistic”, the “SUM159 cell growth inhibition, RTK inhibitor as single agent” value (SUM159 cells) was “ineffective as single agents” and the “MDA-MB-231 cell growth in combination with AZD6244” value (MDA-MB-231 cells) was “little effect”.
With `CNC(=O)c1cc(Oc2ccc(NC(=O)Nc3ccc(Cl)c(C(F)(F)F)c3)cc2)ccn1` [sorafenib] the “SUM159 cell growth inhibition in combination with AZD6244” value (SUM159 cells) was “synergistic”, the “SUM159 cell growth inhibition, RTK inhibitor as single agent” value (SUM159 cells) was “ineffective as single agents” and the “growth of SUM159 cells, sorafenib at the highest dose tested in combination with AZD6244” value (SUM159 cells; highest dose tested, 72 h) was “synergistically inhibited growth”. The “SUM159 proliferation, sorafenib at low doses in combination with AZD6244” value (SUM159 cells; low doses, 72 h) was “did not significantly stimulate proliferation”, the “MDA-MB-231 cell growth in combination with AZD6244” value (MDA-MB-231 cells) was “synergizes” and the “growth of SUM159-R cells, cell counts” value (SUM159-R cells) was “Inhibited cell growth”. The “Tyr phosphorylation of RTKs induced by AZD6244” value (RTKs [2]; RTK arrays, 72 h, with AZD6244) was “inhibited Tyr phosphorylation of multiple RTKs”, the “ERK activity in SUM159-R cells” value (ERK1/2 [7]) was “inhibited ERK activity” and the “effect on tumor progression” value (C3Tag tumors) was “no effect”. For the same compound, the “tumor MEK and ERK compared to untreated animals” value (ERK) was “strongly activated”, the “expression of RTKs in C3Tag tumors versus untreated” value (RTKs [8]) was “do not alter RTK expression” and the “MIB binding of BRAF, PDGFRβ, CSF1R, DDR1, DDR2, KIT, MLTK and FRK” value [9] was “decreased MIB binding”.
